Laboratory results: patent US8501233B2, “Compositions and methods for treating cancer” (Wake Forest University, priority 2007, dated 2013)

Experiments:
RKO cells [1] = test: Cell death of RKO cells with Mitomycin C compositions, MTS assay (Example 7); assay type: cell-based, human; details: MMC 40 μM, including cells heated to 42° C.
Method: (§1) Three (3) 48 well plates containing 10,000-20,000 RKO cells/well (human colon carcinoma) were prepared for a series of experiments measuring cell death as a function of exposure to various compositions, including compositions according to some embodiments of the present invention.
(§2) RKO colorectal cancer cell lines were purchased from American Type Culture Collections (ATCC) and cultured in McCoys's media supplemented with 2.5 μg/ml of amphotericin, 1% L-glutamine, 1% penicillin/streptomycin, and 10% fetal bovine serum. Cells were seeded in wells of the appropriate trays at a density of 10,000-20,000 cells per well.
(§3) MWNTs were grown by chemical vapor deposition (CVD) using xylene as the carbon precursor and ferrocene as a catalyst at concentrations of 60 mg or 400 mg. Hydrogen and argon gases were used to flow the xylene through a preheater at 170° C. and a furnace oven at 700° C. An injection rate of 5 ml/hour for a one hour run yielded about 200 mg of carbon nanotubes.
(§4) 50 mg of the MWNTs were cut and cleaned by sonication in a mixture of 90 ml of concentrated sulfuric acid and 30 ml of concentrated nitric acid for 24 hours. The length of the nanotubes was about 2 μm as determined by transmission electron microscopy (TEM). MWNT suspensions were prepared by adding 1 mg of MWNT per 1 ml of aqueous solution comprising 0.1% by weight Pluronic 127® surfactant. […]

HCT 116 cells = test: Cell death of HCT 116 cells, single 8 second lasing (Example 8); assay type: cell-based, human; details: oxaliplatin 300 μM, including cells heated to 42° C.
Method: Two (2) 48 well plates containing 10,000-20,000 HCT 116 cells/well (human colon carcinoma) were prepared for a series of experiments measuring cell death as a function of exposure to various compositions, including compositions according to some embodiments of the present invention.
as §2, with “HCT 116” for “RKO”
as §3, §4

RKO cells [2] = test: Cell death of RKO cells after exposure to compositions, calorimetric assay (Example 4); assay type: cell-based, human; details: oxaliplatin 300 μM, heated to 42° C. for two hours
Method: Three (3) 48 well plates containing 20,000 RKO cells/well (human colon carcinoma) were prepared for a series of experiments measuring cell death as a function of exposure to various compositions, including compositions according to some embodiments of the present invention.
as §3
50 mg of the MWNTs were cut and cleaned by sonication in a mixture of 90 ml of concentrated sulfuric acid and 30 ml of concentrated nitric acid for 24 hours. The length of the nanotubes was about 2 μm as determined by transmission electron microscopy (TEM). MWNT suspensions were prepared by adding 1 mg of MWNT per 1 ml of aqueous solution having 0.1% by weight Pluronic 127® surfactant. The suspensions were sonicated to enhance MWNT dispersion. MWNT suspensions were diluted with water to a concentration of 100 μg MWNT/ml.
A solution comprising oxaliplatin at a concentration of 300 μM was obtained (Ox). […]
Cell death resulting from the addition of the various compositions at the three temperatures was monitored by calorimetric assay. […]

[3] = tested on: HeLa cervical cancer cells; test: In vivo evaluation of localized hyperthermia, intraperitoneal cancer nodules in athymic mice (Example 11); details: Group 3 irradiated 10 seconds (42° C.), Group 2 heated 42° C. two hours, two weeks after treatment
Method: 15 athymic mice are divided equally into three treatment groups as provided in Table 13, with Group 1 receiving a treatment composition of 100 μg/ml of MWNTs, Group 2 receiving a treatment composition comprising 300 μM oxaliplatin, and Group 3 receiving a treatment composition comprising 300 μM oxaliplatin and 100 μg MWNT per ml.
Each animal of Groups 1-3 receives intraperitoneal injections of 1E6 HeLa cervical cancer cells which express folic acid receptors. […] Two weeks after the intraperitoneal injections of the cancerous cells, the intraperitoneal cavity of each animal in Groups 1-3 is exposed, and the cancer nodules photographed allowing size and number of the nodules to be recorded.
After examination and quantification of cancer nodules, two 5 ml solutions of FA functionalized MWNTs (100 μg/ml) are provided to the intraperitoneal cavity of each animal in Groups 1 and 3. […]
The animals of Groups 1-3 are allowed to recover for two weeks. […] The size and number of cancerous nodules at the time of sacrifice is compared to the initially recorded observations of size and number of cancerous nodules for each animal. Moreover, for each animal in the study, a total of about 1 to 10 mg of tumor nodule mass is retained to determine platinum content as determined by elemental analysis.

RKO cells [4] = test: Cell death / viability of RKO cells, MTS assay (Example 5); assay type: cell-based, human; details: oxaliplatin 300 μM, including cells heated to 42° C., MTS 48 hours after treatment
Method: as §1, with “cells/well (human colon carcinoma) and three (3) 48 well plates containing 10,000-20,000 HCT 116 cell/well” for “cells/well”
as §2, with “RKO and HCT 116” for “RKO”, “well. […]” for “well.”
50 mg of the MWNTs were cut and cleaned by sonication in a mixture of 90 ml of concentrated sulfuric acid and 30 ml of concentrated nitric acid for 24 hours. The length of the nanotubes was about 2 μm as determined by transmission electron microscopy (TEM). […]
Following incubation, the media in the wells of each of the plates was replaced with media containing MTS assay reagents from Promega's CellTiter 96® AQueous assay kit. Cell viability was quantified over a three hour period according to the manufacturers instructions.

Compound	cell death (RKO cells [1])	cell death (HCT 116 cells)	cell death (RKO cells [2])	reduction in the sizes and numbers of cancerous nodules (Groups 2 and 3 compared) [3]	cell death (RKO cells [4])
CO[C@@]12[C@H](COC(N)=O)C3=C(C(=O)C(C)=C(N)C3=O)N1C[C@@H]1N[C@@H]12 [MMC, Mitomycin C]	significant death				
O=C1[O][Pt]2([NH][C@@H]3CCCC[C@H]3[NH]2)[O]C1=O [oxaliplatin]		significant death	significant	substantially similar reduction	significant death
